Consider 44 molecules from patent US7981919B2, “Tricyclic heteroaryl piperazines, pyrrolidines and azetidines as serotonin receptor modulators” (Athersys, Inc., priority 2004, dated 2011).

Where only a bound is given, the exact number is not on record here.

The target of one experiment is T1, human 5HT2c receptor (VNV Isoform) (Homo sapiens, UniProt P28335, I156V/I160V, form not given).
T1 sequence (P28335 1-458 I156V/N158S/I160V): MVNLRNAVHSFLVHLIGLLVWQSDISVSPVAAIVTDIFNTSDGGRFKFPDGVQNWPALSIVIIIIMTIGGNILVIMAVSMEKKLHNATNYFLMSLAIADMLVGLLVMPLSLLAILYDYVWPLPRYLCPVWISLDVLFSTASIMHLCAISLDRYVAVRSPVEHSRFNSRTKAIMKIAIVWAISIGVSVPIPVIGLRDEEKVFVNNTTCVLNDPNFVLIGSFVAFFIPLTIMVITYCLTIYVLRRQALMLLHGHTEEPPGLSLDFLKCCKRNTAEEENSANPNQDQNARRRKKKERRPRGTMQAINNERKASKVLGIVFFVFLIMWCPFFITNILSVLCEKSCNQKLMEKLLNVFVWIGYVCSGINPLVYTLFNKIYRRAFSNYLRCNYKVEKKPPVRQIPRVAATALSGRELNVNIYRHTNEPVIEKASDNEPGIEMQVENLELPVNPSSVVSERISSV
Kind of experiment: Calcium mobilization (FLIPR) 5HT2c receptor agonist assay in HEK 293 EBNA cells. The class given is cell-based. The conditions noted are these: HEK 293 EBNA cells expressing human 5HT2c receptor, ligand-induced calcium release, read-out: 5-HT2c EC50 (hVSV). The method, then:
The following procedure was utilized to evaluate representative compounds of the present invention as 5HT2c receptor agonists.
5HT was utilized as a positive control. Ligand-induced calcium release and consequent fluorescence was measured on a Fluorometric Imaging Plate Reader (FLIPR, Molecular Device, CA).
All data were analyzed by nonlinear least square curve fitting using Prism 4.0 software. Agonist stimulation of calcium-induced fluorescence in FLIPR was fitted to sigmoidal dose response using equation Y=Bottom+(Top−Bottom)/(1+10 ? ((Log EC50−X))), where X is the logarithm of concentration of compounds and Y is the fluorescent response.
(In general: Calcium flux is commonly read through the fluorescence of an indicator in the cells.)
`CC(C)(C)C(=O)c1sc2c(c1Br)CC1CNCC21` (single isomer, unassigned) [43, Enantiomer 2]: the EC50 (as a rule, the concentration at which the effect is half-maximal) was less than 1000 nM.

As to `Cc1sc2c(c1Br)C1CNCCC1C2` (single isomer, unassigned) [33, Enantiomer 1], the EC50 was less than 1000 nM.

In the case of `COC(=O)c1cc2c(s1)C1CNCC1C2` (stereo not drawn) [Example 8, 1,2,3,3a,7,7a-Hexahydro-4-thia-2-aza-cyclopenta[α]pentalene-5-carboxylic acid methyl ester], the EC50 was less than 10000 nM. The same measure, in the same setting: under `Cc1sc2c(c1Cl)CC1CNCC21` (stereo not drawn) [Example 15, 6-Chloro-5-methyl-1,2,3,3a,7,7a-hexahydro-4-thia-2-aza-cyclopenta[α]pentalene] stands less than 100 nM; under `N#Cc1c(Cl)sc2c1C1CNCC1C2` (stereo not drawn) [Example 10, 2-Chloro-3b,4,5,6,6a,7-hexahydro-1-thia-5-aza-cyclopenta[α]pentalene-3-carbonitrile], less than 10000 nM. Still for that read-out and setting: the result for `Cc1sc2c(c1Br)C(C)C1CNCC21` (single isomer, unassigned) [27, Enantiomer 2] reads less than 100 nM; that for `CCOC(=O)c1csc2c1CC1CNCC21` (stereo not drawn) [Example 3, 1,2,3,3a,7,7a-Hexahydro-4-thia-2-aza-cyclopenta[α]pentalene-6-carboxylic acid ethyl ester], less than 100 nM. With `Brc1cc2c(s1)C1CNCC1C2` (single isomer, unassigned) [38, Enantiomer 1], the EC50 was less than 100 nM. On the same count and under the same terms, under `CC1c2cc(Br)sc2C2CNCC12` (single isomer, unassigned) [36, Enantiomer 1] stands less than 1000 nM; under `Cc1c(Cl)sc2c1CC1CNCC21` (stereo not drawn) [Example 17, 5-Chloro-6-methyl-1,2,3,3a,7,7a-hexahydro-4-thia-2-aza-cyclopenta[α]pentalene], less than 100 nM; under `Nc1sc2c(c1C(=O)c1cccc(C(F)(F)F)c1)CC1CNCC21` (stereo not drawn) [Example 5, (5-Amino-1,2,3,3a,7,7a-hexahydro-4-thia-2-aza cyclopenta[α]-pentalen-6-yl)-(3-trifluoromethyl-phenyl)-methanone], less than 10000 nM.

As to `Cc1c(Cl)sc2c1C(C)C1CNCC21` (single isomer, unassigned) [26, Enantiomer 2], the EC50 is less than 100 nM. Consider `Cc1c(Br)sc2c1C1CNCC1CC2` (single isomer, unassigned) [46, Enantiomer 2], for which the EC50 was less than 1000 nM.

Take `c1cc2c(s1)C1CNCC1C2` (stereo not drawn) [Example 9, 1,2,3,3a,7,7a-Hexahydro-4-thia-2-aza-cyclopenta[α]pentalene]: the EC50 is greater than 10000 nM. For the molecule `Cc1c(C(F)(F)F)sc2c1CC1CNCC21` (single isomer, unassigned) [40, Enantiomer 2], the EC50 is less than 100 nM. The same measure, in the same setting: under `CC1c2cc(Br)sc2C2CNCC12` (single isomer, unassigned) [36, Enantiomer 2] stands less than 10000 nM. The same measure, in the same setting: the result for `Nc1sc2c(c1C(=O)c1ccc(Cl)cc1)CC1CNCC21` (stereo not drawn) [Example 7, (5-Amino-1,2,3,3a,7,7a-hexahydro-4-thia-2-aza-cyclopenta[α]-pentalen-6-yl)-(4-chloro-phenyl)-methanone] reads less than 10000 nM; that for `N#Cc1c(Br)sc2c1C1CNCC1C2` (stereo not drawn) [Example 11, 2-Bromo-3b,4,5,6,6a,7-hexahydro-1-thia-5-aza-cyclopenta[α]pentalene-3-carbonitrile], less than 10000 nM.

For `N#Cc1c(Cl)sc2c1CC1CNCC21` (stereo not drawn) [Example 12, 5-Chloro-1,2,3,3a,7,7a-hexahydro-4-thia-2-aza-cyclopenta[α]pentalene-6-carbonitrile], the 50% effective concentration (EC50) was less than 100 nM. On to `c1ccc2c3c(sc2c1)C1CNCC1C3` (single isomer, unassigned) [45, Enantiomer 2], for which the EC50 is less than 1000 nM.

Regarding `CC1c2sccc2C2CNCC12` (single isomer, unassigned) [34, Enantiomer 1], the EC50 was less than 10000 nM. On the same count and under the same terms, the result for `Cc1ccc(C(=O)c2c(N)sc3c2CC2CNCC32)cc1` (stereo not drawn) [Example 6, (5-Amino-1,2,3,3a,7,7a-hexahydro-4-thia-2-aza-cyclopenta[α]-pentalen-6-yl)-p-tolyl-methanone] reads less than 1000 nM.

Take `N#Cc1csc2c1CC1CNCC21` (stereo not drawn) [Example 14, 1,2,3,3a,7,7a-Hexahydro-4-thia-2-aza-cyclopenta[α]pentalene-6-carbonitrile]: the EC50 was less than 1000 nM. Still for that read-out and setting: the result for `CC1c2sc(Cl)cc2C2CNCC12` (stereo not drawn) [Example 24, 2-Chloro-7-methyl-3b,4,5,6,6a,7-hexahydro-1-thia-5-aza-cyclopenta[α]pentalene] reads less than 1000 nM; that for `Brc1sc2c(c1Br)CC1CNCC21` (stereo not drawn) [Example 19, 5,6-Dibromo-1,2,3,3a,7,7a-hexahydro-4-thia-2-aza-cyclopenta[α]pentalene], less than 1000 nM.

`CCOC(=O)c1c(Cl)sc2c1CC1CNCC21` (stereo not drawn) [Example 4, 5-Chloro-1,2,3,3a,7,7a-hexahydro-4-thia-2-aza-cyclopenta[α]pentalene-6-carboxylic acid ethyl ester]: the EC50 was less than 100 nM. As for `Brc1sc2c(c1Br)C1CNCC1C2` (stereo not drawn) [Example 22, 2,3-Dibromo-3b,4,5,6,6a,7-hexahydro-1-thia-5-aza-cyclopenta[α]pentalene], the EC50 is less than 100 nM. On the same count and under the same terms, under `Cc1sc2c(c1Br)C(C)C1CNCC21` (single isomer, unassigned) [27, Enantiomer 1] stands less than 1000 nM; under `Brc1csc2c1CC1CNCC21` (single isomer, unassigned) [37, Enantiomer 1], less than 1000 nM; under `CC1c2sc(I)cc2C2CNCC12` (stereo not drawn) [Example 25, 2-Iodo-7-methyl-3b,4,5,6,6a,7-hexahydro-1-thia-5-aza-cyclopenta[α]pentalene], less than 1000 nM. Still for that read-out and setting: under `FC(F)(F)c1csc2c1C1CNCC1C2` (stereo not drawn) [Example 23, 3-Trifluoromethyl-3b,4,5,6,6a,7-hexahydro-1-thia-5-aza-cyclopenta[α]pentalene] stands less than 1000 nM; under `Cc1sc2c(c1Br)C1CNCCC1C2` (single isomer, unassigned) [33, Enantiomer 2], less than 10000 nM; under `COc1csc2c1CC1CNCC21` (stereo not drawn) [Example 20, 6-Methoxy-1,2,3,3a,7,7a-hexahydro-4-thia-2-aza-cyclopenta[α]pentalene], less than 1000 nM. For `Brc1cc2c(s1)C1CCNCC1C2` (stereo not drawn) [Example 31, 2-Bromo-4,5,6,7,7a,8-hexahydro-3bH-3-thia-6-aza-cyclopenta[α]indene], the EC50 is less than 1000 nM. Still for that read-out and setting: under `Brc1cc2c(s1)CC1CNCCC21` (single isomer, unassigned) [28, Enantiomer 1] stands less than 10000 nM; under `COc1c(C(F)(F)F)sc2c1CC1CNCC21` (single isomer, unassigned) [41, Enantiomer 2], less than 100 nM. Same read-out and setting: under `Brc1cc2c(s1)CC1CCNCC21` (single isomer, unassigned) [29, Enantiomer 2] stands less than 10000 nM.

For the molecule `N#Cc1c(Br)sc2c1CC1CNCC21` (centres unmarked) [Example 13, 5-Bromo-1,2,3,3a,7,7a-hexahydro-4-thia-2-aza-cyclopenta[ ]pentalene-6-carbonitrile], the EC50 was less than 100 nM. Same read-out and setting: the result for `CCOC(=O)c1c(Br)sc2c1CC1CNCC21` (stereo not drawn) [Example 2, 5-Bromo-1,2,3,3a,7,7a-hexahydro-4-thia-2-aza-cyclopenta[α]pentalene-6-carboxylic acid ethyl ester] reads less than 100 nM; that for `FC(F)(F)c1sc2c(c1Br)CC1CNCC21` (single isomer, unassigned) [39, Enantiomer 2], less than 100 nM. On the same count and under the same terms, under `Brc1cc2c(s1)CC1CNCC21` (stereo not drawn) [Example 21, 2-Bromo-3b,4,5,6,6a,7-hexahydro-1-thia-5-aza-cyclopenta[α]pentalene] stands less than 100 nM; under `CCOC(=O)c1c(N)sc2c1CC1CNCC21` (stereo not drawn) [Example 1, 5-Amino-1,2,3,3a,7,7a-hexahydro-4-thia-2-aza-cyclopenta[α]pentalene-6-carboxylic acid ethyl ester], less than 100 nM.

For the molecule `COc1c(Cl)sc2c1CC1CNCC21` (single isomer, unassigned) [42, Enantiomer 2], the EC50 is less than 10000 nM.

The same experiment, now with this note: read-out: 5-HT2c EC50 (hVSV), HEK 293 EBNA cells expressing human 5HT2c receptor, ligand-induced calcium release.
In the case of `Brc1cc2c(s1)C1CNCCC1C2` (single isomer, unassigned) [30, Enantiomer 2], the EC50 is greater than 10000 nM.
